Reference: patent publication US11708367B2, “Compounds for the treatment of kinase-dependent disorders” (Exelixis, Inc., priority 2018, dated 2023)
pIC50: −log10 of the molar value.

Tests used:
Type in all cases: cell-based
AXL = AXL (Homo sapiens (Human), UniProt P30530); experiment: AXL autophosphorylation ELISA in A-172 cells; conditions: cellular, Gas6-stimulated, phospho-AXL ELISA
Description: A-172 glioblastoma cells (ATCC #CRL-1620) were seeded at 2.5×10^5 cells/well onto 24-well plates (Greiner #662165), in DMEM (Thermo Fisher #11995-040) containing 10% FBS (Thermo Fisher #26140-079), 1% MEM NEAA (Thermo Fisher #11140-050), 1% GlutaMax (Thermo Fisher #35050-061), and 1% Penicillin Streptomycin (Thermo Fisher #15140-122). A-172 cells were incubated at 37° C., 5% CO2 for 24 h and then starved for 24 h in serum-free medium. Test compounds were serially diluted to produce an 8-point dose curve in fresh serum-free medium to a final concentration of 0.3% DMSO (vehicle) and added to the cells and incubated for 1 h. Cells were then stimulated with 1 μg/mL recombinant human Gas6 (R&D Systems #885-GSB-500) for 15 min, washed with cold PBS, and immediately lysed with 150 μL of cold IX lysis buffer [20 mM Tris, 137 mM sodium chloride, 2 mM EDTA, 10% glycerol, 1% NP-40 alternative, 1 mM activated sodium orthovanadate, 1 mM PefaBloc SC (Sigma-Aldrich #11429868001), protease/phosphatase inhibitor tablet (Thermo Fisher #A32959)]. Lysates were collected and 100 μL/well added into the human phospho-AXL Duo Set IC ELISA (R&D Systems #DYC2228-2). Assay was performed according to manufacturer's instructions and sample phospho-AXL concentrations were extrapolated using human phospho-AXL control (R&D Systems #841645) as a standard. Positive control wells (100% activity) contained Gas6-stimulated, DMSO-treated cell lysates. Negative control wells (0% activity) contained Gas6-stimulated, reference inhibitor-treated cell lysates. IC50 values were calculated by nonlinear regression analysis using a 4-parameter logistic curve fit in ActivityBase XL (IDBS).

Mer = Mer (Homo sapiens (Human), UniProt Q12866); experiment: Mer autophosphorylation ELISA in transient transfected 293A cells; conditions: cellular, MERTK-transfected 293A cells, phospho-Mer ELISA
Description: 293A cells (Thermo Fisher #R70507) were seeded at 1.5×10^6 cells/well onto 100 mm dish (Greiner #664169), in DMEM (Thermo Fisher #11995-040) containing 10% FBS (Thermo Fisher #26140-079), 1% MEM NEAA (Thermo Fisher #11140-050), 1% GlutaMax (Thermo Fisher #35050-061), and 1% Penicillin Streptomycin (Thermo Fisher #15140-122). 293A cells were incubated at 37° C., 5% CO2 for 24 h and then transfected with 6 μg MERTK DNA (Genecopoeia #EX-Z8208-M02) using TransIT LT1 transfection reagent (Mirus-Bio #MIR2305). After 24 h incubation, the transfected 293A cells were seeded at 1×10^5 cells/well onto 96-well plates (Corning #3904) in DMEM growth medium overnight. Test compounds were serially diluted to produce an 8-point dose curve in fresh serum-free medium to a final concentration of 0.3% DMSO (vehicle) and added to the cells and incubated for 1 h. Cells were then immediately lysed with 150 μL of cold IX lysis buffer [20 mM Tris, 137 mM sodium chloride, 2 mM EDTA, 10% glycerol, 1% NP-40 alternative, 1 mM activated sodium orthovanadate, 1 mM PefaBloc SC (Sigma-Aldrich #11429868001), protease/phosphatase inhibitor tablet (Thermo Fisher #A32959)]. Lysates were clarified by centrifugation and 50 μL/well added into the human phospho-Mer DuoSet IC ELISA (R&D Systems #DYC2579-2). Assay was performed according to manufacturer's instructions and sample phospho-Mer concentrations were extrapolated using human phospho-Mer control (R&D Systems #841793) as a standard. Positive control wells (100% activity) contained DMSO-treated cell lysates. Negative control wells (0% activity) contained reference inhibitor-treated cell lysates. IC50 values were calculated by nonlinear regression analysis using a 4-parameter logistic curve fit in ActivityBase XE (IDBS).

Met = Met (Homo sapiens (Human), UniProt P08581); experiment: Met autophosphorylation ELISA in PC-3 cells; conditions: cellular, HGF-stimulated, phospho-Met ELISA, read-out: c-Met IC50
Description: PC-3 prostate cancer cells (ATCC #CRL-1435) were seeded at 4×10^4 cells/well onto 24-well plates (Greiner #662165), in DMEM (Thermo Fisher #11995-040) containing 10% FBS (Thermo Fisher #26140-079), 1% MEM NEAA (Thermo Fisher #11140-050), 1% GlutaMax (Thermo Fisher #35050-061), and 1% Penicillin Streptomycin (Thermo Fisher #15140-122). PC-3 cells were incubated at 37° C., 5% CO2 for 24 h and then starved for 3 h in serum-free medium. Test compounds were serially diluted to produce an 8-point dose curve in fresh serum-free medium to a final concentration of 0.3% DMSO (vehicle) and added to the cells and incubated for 1 h. Cells were then stimulated with 100 ng/mL recombinant human HGF (R&D Systems #294-HG-250) for 10 min, washed with cold PBS, and immediately lysed with 130 μL of cold IX lysis buffer [20 mM Tris, 137 mM sodium chloride, 2 mM EDTA, 10% glycerol, 1% NP-40 alternative, 1 mM activated sodium orthovanadate, 1 mM PefaBloc SC (Sigma-Aldrich #11429868001), protease/phosphatase inhibitor tablet (Thermo Fisher #A32959)]. Lysates were clarified by centrifugation and 100 μL/well added into the PathScan phospho-Met (panTyr) Sandwich ELISA (Cell Signaling Technology #7333). Assay was performed according to manufacturer's instructions. Positive control wells (100% activity) contained HGF-stimulated, DMSO-treated cell lysates. Negative control wells (0% activity) contained HGF-stimulated, reference inhibitor-treated cell lysates. IC50 values were calculated by nonlinear regression analysis using a 4-parameter logistic curve fit in ActivityBase XL (IDBS).

KDR = KDR (Homo sapiens (Human), UniProt P35968); experiment: KDR autophosphorylation ELISA in HUVEC cells; conditions: cellular, VEGF165-stimulated, phospho-KDR ELISA
Description: Human umbilical vein endothelial cells or HUVEC (Lonza #C2519A) were seeded at 2×10^4 cells/well onto 96-well plates (Corning #3904), in EGM-2 growth medium (Lonza #CC-3162) containing 1% Penicillin Streptomycin (Thermo Fisher #15140-122). HUVEC cells were incubated at 37° C., 5% CO2 for 24 h and then starved for 24 h in serum-free EBM-2 basal medium (Lonza #CC-3156) containing 1% Penicillin Streptomycin. Test compounds were serially diluted to produce an 8-point dose curve in fresh serum-free medium to a final concentration of 0.3% DMSO (vehicle) and added to the cells and incubated for 1 h. Cells were then stimulated with 100 ng/mL recombinant human VEGF165 (R&D Systems #293-VE-500) for 5 min, washed with cold PBS, and immediately lysed with 130 μL of cold 1× lysis buffer [20 mM Tris, 137 mM sodium chloride, 2 mM EDTA, 10% glycerol, 1% NP-40 alternative, 1 mM activated sodium orthovanadate, 1 mM PefaBloc SC (Sigma-Aldrich #11429868001), protease/phosphatase inhibitor tablet (Thermo Fisher #A32959)]. Lysates were collected and 100 μL/well added into the human phospho-KDR Duo Set IC ELISA (R&D Systems #DYC 1766-2). Assay was performed according to manufacturer's instructions and sample phospho-KDR concentrations were extrapolated using human phospho-KDR control (R&D Systems #841421) as a standard. Positive control wells (100% activity) contained VEGF165-stimulated, DMSO-treated cell lysates. Negative control wells (0% activity) contained non-stimulated cell lysates. IC50 values were calculated by nonlinear regression analysis using a 4-parameter logistic curve fit in ActivityBase XE (IDBS).

Chain of KDR (P35968 20-1356): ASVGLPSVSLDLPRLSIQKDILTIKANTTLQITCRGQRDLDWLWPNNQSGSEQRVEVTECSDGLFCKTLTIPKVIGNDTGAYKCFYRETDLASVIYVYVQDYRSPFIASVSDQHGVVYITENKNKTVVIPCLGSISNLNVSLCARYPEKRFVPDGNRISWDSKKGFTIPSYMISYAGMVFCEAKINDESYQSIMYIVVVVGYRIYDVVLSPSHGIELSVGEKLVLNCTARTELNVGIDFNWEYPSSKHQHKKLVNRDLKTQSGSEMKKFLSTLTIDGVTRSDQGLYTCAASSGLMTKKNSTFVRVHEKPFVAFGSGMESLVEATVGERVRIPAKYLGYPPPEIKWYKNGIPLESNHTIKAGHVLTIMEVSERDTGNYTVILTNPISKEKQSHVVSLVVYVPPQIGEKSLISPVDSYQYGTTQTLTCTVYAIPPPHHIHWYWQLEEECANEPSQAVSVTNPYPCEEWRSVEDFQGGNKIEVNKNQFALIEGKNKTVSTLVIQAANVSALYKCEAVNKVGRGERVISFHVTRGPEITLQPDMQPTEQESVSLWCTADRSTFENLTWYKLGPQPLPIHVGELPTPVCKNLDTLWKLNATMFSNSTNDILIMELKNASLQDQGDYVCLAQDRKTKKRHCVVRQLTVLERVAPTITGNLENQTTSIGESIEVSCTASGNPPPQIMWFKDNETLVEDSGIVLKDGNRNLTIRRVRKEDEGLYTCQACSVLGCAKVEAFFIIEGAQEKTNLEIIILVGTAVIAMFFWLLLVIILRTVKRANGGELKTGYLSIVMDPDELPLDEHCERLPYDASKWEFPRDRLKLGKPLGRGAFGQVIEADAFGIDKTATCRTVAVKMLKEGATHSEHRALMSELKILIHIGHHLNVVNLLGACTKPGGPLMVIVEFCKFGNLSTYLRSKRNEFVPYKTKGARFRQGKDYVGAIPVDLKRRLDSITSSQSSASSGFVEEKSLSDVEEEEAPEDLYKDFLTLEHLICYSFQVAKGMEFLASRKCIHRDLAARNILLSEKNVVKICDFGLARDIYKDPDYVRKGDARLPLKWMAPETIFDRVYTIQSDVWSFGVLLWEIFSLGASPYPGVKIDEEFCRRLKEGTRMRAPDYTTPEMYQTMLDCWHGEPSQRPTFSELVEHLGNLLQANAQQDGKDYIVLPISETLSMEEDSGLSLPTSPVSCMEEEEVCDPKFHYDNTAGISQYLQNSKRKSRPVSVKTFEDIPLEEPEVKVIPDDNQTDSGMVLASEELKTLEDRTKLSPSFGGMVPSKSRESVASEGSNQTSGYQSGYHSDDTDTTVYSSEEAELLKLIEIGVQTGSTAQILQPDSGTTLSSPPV
Chain of AXL (P30530 26-894): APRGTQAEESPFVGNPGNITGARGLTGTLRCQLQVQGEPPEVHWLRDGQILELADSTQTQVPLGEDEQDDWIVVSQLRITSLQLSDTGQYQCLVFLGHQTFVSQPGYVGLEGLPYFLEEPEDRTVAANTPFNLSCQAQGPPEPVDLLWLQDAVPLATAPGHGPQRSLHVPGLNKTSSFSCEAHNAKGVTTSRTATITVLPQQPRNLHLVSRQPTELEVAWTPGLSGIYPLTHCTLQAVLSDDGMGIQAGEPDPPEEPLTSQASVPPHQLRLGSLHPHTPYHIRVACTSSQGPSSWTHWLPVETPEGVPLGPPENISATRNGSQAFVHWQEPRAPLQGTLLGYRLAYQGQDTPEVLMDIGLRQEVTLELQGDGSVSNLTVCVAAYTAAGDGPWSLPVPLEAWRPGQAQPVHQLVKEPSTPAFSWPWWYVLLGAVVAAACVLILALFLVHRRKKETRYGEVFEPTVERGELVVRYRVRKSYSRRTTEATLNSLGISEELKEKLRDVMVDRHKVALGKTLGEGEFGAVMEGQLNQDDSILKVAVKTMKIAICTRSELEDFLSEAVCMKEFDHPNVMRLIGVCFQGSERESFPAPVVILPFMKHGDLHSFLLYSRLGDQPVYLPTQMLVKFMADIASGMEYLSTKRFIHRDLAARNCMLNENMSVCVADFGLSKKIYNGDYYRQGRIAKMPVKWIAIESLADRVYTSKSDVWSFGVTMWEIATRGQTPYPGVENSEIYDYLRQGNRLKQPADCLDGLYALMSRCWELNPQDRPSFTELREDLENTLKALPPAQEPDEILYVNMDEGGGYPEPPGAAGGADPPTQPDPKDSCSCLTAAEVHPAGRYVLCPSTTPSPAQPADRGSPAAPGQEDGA
Chain of Met (P08581 25-1390): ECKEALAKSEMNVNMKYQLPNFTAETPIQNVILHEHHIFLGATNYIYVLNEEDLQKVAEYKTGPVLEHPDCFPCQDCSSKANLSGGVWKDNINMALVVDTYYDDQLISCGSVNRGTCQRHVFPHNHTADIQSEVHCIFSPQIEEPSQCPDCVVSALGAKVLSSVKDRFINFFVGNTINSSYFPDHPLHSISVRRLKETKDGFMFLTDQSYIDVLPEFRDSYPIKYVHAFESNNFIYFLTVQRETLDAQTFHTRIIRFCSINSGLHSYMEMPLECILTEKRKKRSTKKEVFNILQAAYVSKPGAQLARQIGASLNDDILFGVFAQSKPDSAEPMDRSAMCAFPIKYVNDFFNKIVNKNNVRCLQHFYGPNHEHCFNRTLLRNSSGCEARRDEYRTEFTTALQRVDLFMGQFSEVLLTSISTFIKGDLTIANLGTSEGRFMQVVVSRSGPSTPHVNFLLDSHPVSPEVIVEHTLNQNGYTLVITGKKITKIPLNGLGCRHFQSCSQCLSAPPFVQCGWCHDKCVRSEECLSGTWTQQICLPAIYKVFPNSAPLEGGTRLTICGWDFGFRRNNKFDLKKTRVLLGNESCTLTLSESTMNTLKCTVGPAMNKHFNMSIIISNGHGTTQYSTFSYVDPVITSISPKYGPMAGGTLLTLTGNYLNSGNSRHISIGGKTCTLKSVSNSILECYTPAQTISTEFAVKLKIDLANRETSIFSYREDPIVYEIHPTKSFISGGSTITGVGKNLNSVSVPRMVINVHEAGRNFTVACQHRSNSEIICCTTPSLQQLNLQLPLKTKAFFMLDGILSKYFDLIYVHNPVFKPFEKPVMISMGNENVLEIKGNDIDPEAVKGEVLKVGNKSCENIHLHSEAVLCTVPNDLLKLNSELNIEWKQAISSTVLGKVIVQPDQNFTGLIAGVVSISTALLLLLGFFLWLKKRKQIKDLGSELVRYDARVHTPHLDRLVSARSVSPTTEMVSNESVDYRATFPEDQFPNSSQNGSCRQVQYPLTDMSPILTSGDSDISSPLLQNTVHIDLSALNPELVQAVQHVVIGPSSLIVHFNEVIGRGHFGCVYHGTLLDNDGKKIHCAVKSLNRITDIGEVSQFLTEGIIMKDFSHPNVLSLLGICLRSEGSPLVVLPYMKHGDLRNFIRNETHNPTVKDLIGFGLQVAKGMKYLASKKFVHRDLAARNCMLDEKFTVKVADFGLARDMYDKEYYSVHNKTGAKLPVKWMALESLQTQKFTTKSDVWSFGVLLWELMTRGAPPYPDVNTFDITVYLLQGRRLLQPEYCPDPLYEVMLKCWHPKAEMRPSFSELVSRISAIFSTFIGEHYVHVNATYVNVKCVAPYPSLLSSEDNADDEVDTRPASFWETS
Chain of Mer (Q12866 21-999): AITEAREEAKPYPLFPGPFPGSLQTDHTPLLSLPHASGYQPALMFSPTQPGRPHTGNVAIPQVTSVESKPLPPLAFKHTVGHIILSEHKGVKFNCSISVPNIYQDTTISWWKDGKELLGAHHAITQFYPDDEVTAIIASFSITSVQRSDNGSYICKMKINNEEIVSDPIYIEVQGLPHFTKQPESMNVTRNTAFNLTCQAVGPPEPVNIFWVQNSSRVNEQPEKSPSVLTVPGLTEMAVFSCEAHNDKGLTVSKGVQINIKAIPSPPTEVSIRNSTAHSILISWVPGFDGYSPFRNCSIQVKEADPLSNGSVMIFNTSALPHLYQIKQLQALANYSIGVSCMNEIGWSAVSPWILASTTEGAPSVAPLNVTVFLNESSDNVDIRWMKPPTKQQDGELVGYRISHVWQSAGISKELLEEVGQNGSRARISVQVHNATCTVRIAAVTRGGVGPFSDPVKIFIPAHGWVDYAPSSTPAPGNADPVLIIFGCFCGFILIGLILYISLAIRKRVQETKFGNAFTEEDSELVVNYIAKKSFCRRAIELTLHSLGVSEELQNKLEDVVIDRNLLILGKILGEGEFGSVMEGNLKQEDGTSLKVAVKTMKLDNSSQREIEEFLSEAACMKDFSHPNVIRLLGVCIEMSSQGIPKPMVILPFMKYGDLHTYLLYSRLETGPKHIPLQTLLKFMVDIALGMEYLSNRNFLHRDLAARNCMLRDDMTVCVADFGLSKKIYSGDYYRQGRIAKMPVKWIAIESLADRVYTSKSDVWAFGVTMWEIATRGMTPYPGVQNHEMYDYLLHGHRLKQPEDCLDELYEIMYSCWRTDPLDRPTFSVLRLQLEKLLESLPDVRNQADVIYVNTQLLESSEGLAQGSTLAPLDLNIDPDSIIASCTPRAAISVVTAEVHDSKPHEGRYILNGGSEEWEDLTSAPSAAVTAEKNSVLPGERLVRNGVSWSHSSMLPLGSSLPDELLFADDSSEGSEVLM

| pIC50 (AXL) | pIC50 (Mer) | pIC50 (Met) | pIC50 (KDR) | SMILES |
| --- | --- | --- | --- | --- |
| 7.00 to 8.00 | 7.00 to 8.00 | 6.52 to 7.00 | 6.52 to 7.00 | COc1nc2c(Oc3ccc(NC(=O)C4(C(=O)Nc5ccc(F)cc5)CC4)c(Cl)c3)ncnc2cc1OCCCN1CCOCC1 [Compound 70, 1-N′-[2-chloro-4-[6-methoxy-7-(3-morpholin-4-ylpropoxy)pyrido[3,2-d]pyrimidin-4-yl]oxyphenyl]-1-N-(4-fluorophenyl)cyclo-propane-1,1-dicarboxamide] |
| ≥ 8.00 | ≥ 8.00 | 7.00 to 8.00 | 7.00 to 8.00 | COc1cc2ncnc(Oc3ccc(NC(=O)C4(C(=O)Nc5ccc(F)cc5)CC4)c(F)c3F)c2nc1OC [Compound 34, 1-N′-[4-(6,7-dimethoxypyrido[3,2-d]pyrimidin-4-yl)oxy-2,3-difluorophenyl]-1-N-(4-fluorophenyl)cyclo-propane-1,1-dicarbox-amide] |
| ≥ 8.00 | 7.00 to 8.00 | 7.00 to 8.00 | 7.00 to 8.00 | COc1cc2ncnc(Oc3ccc(NC(=O)C4(C(=O)Nc5ccc(F)cc5)CC4)c(F)c3)c2nc1OC [Compound 31, 1-N′-[4-(6,7-dimethoxy-pyrido[3,2-d]pyrimidin-4-yl)oxy-2-fluorophenyl]-1-N-(4-fluorophenyl)cyclo-propane-1,1-dicarboxamide] |
| ≥ 8.00 | ≥ 8.00 | ≥ 8.00 | ≥ 8.00 | COCCOc1cc2nccc(Oc3ccc(NC(=O)C4(C(=O)Nc5ccc(F)cc5)CC4)cc3F)c2nc1OC [Compound 150, 1-N′-[3-fluoro-4-[[6-methoxy-7-(2-methoxyethoxy)-1,5-naphthyridin-4-yl]oxy]phenyl]-1-N-(4-fluoro-phenyl)cyclopropane-1,1-dicarboxamide] |

Further lines, the compound ahead of its results:

| SMILES | pIC50 (AXL) | pIC50 (Mer) | pIC50 (Met) | pIC50 (KDR) |
| --- | --- | --- | --- | --- |
| COCCOc1cc2ncnc(Oc3ccc(NC(=O)C4(C(=O)Nc5ccc(F)cc5)CC4)cc3Cl)c2nc1OC [Compound 80, 1-N′-[3-chloro-4-[6-methoxy-7-(2-methoxyethoxy)pyrido[3,2-d]pyrimidin-4-yl]oxy-phenyl]-1-N-(4-fluorophenyl)cyclo-propane-1,1-dicarboxamide] | 7.00 to 8.00 | ≥ 8.00 | 7.00 to 8.00 | ≥ 8.00 |
| COc1nc2c(Oc3c(F)cc(NC(=O)C4(C(=O)Nc5ccc(F)cc5)CC4)cc3F)ncnc2cc1OCCCN1CCOCC1 [Compound 76, 1-N′-[3,5-difluoro-4-[6-methoxy-7-(3-morpholin-4-ylpropoxy)pyrido[3,2-d]pyrimidin-4-yl]oxyphenyl]-1-N-(4-fluorophenyl)cyclo-propane-1,1-dicarboxamide] | ≥ 8.00 | ≥ 8.00 | 7.00 to 8.00 | 7.00 to 8.00 |
| COCCOc1cc2ncnc(Oc3cc(F)c(NC(=O)C4(C(=O)Nc5ccc(F)cc5)CC4)cc3F)c2nc1OC [Compound 83, 1-N′-[2,5-difluoro-4-[6-methoxy-7-(2-methoxy-ethoxy)pyrido[3,2-d]pyrimidin-4-yl]oxyphenyl]-1-N-(4-fluorophenyl)cyclopropane-1,1-dicarboxamide] | ≥ 8.00 | ≥ 8.00 | 7.00 to 8.00 | ≥ 8.00 |
| COCCOc1cc2ncnc(Oc3ccc(NC(=O)C4(C(=O)Nc5ccc(F)cc5)CC4)c(F)c3F)c2nc1OC [Compound 82, 1-N′-[2,3-difluoro-4-[6-methoxy-7-(2-methoxy-ethoxy)pyrido[3,2-d]pyrimidin-4-yl]oxyphenyl]-1-N-(4-fluorophenyl)cyclo-propane-1,1-dicarboxamide] | ≥ 8.00 | 7.00 to 8.00 | 7.00 to 8.00 | ≥ 8.00 |
| COCCOc1cc2nccc(Oc3ccc(NC(=O)C4(C(=O)Nc5ccc(F)cc5)CC4)cc3Cl)c2nc1OC [Compound 151, 1-N′-[3-chloro-4-[[6-methoxy-7-(2-methoxyethoxy)-1,5-naphthyridin-4-yl]oxy]phenyl]-1-N-(4-fluoro-phenyl)cyclopropane-1,1-dicarboxamide] | 7.00 to 8.00 | 7.00 to 8.00 | 7.00 to 8.00 | ≥ 8.00 |
| COc1nc2c(Oc3ccc(NC(=O)C4(C(=O)Nc5ccc(F)cc5)CC4)cc3C#N)ncnc2cc1OCCCN1CCOCC1 [Compound 75, 1-N′-[3-cyano-4-[6-methoxy-7-(3-morpholin-4-ylpropoxy)pyrido[3,2-d]pyrimidin-4-yl]oxyphenyl]-1-N-(4-fluorophenyl)cyclo-propane-1,1-dicarboxamide] | 7.00 to 8.00 | 7.00 to 8.00 | 7.00 to 8.00 | 7.00 to 8.00 |
| COc1nc2c(Oc3ccc(NC(=O)C4(C(=O)Nc5ccc(F)cc5)CC4)c(C)c3)ncnc2cc1OCCCN1CCOCC1 [Compound 71, 1-N-(4-fluorophenyl)-1-N′-[4-[6-methoxy-7-(3-morpholin-4-ylpropoxy)pyrido[3,2-d]pyrimidin-4-yl]oxy-2-methylphenyl]cyclopropane-1,1-dicarboxamide] | 7.00 to 8.00 | < 6.52 | 6.52 to 7.00 | 7.00 to 8.00 |
